Measured values published in patent publication US11339171B2, “MDM2 inhibitors” (Gan & Lee Pharmaceuticals, priority 2017, dated 2022).

What follows are compounds tested against T1, MDM2 (Homo sapiens, UniProt Q00987) (assay: Inhibition test of MDM2-P53 (GST-MDM2, Biotin-P53, Anti-GST-Tb, SA-XL665)).
T1 construct: made in house
Format: binding
In short: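 Binding was measured by TR-FRET with GST-MDM2 at 4 nM final in PBS with 0.1% BSA, 5 mM DTT and 1 mM AEBSF. Compounds were tested as twelve-point 5-fold dilutions and incubated with the detection mix for 90 min at 25 °C with shaking before plate-reader reading and curve fitting.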

T1 sequence (Q00987 whole entry): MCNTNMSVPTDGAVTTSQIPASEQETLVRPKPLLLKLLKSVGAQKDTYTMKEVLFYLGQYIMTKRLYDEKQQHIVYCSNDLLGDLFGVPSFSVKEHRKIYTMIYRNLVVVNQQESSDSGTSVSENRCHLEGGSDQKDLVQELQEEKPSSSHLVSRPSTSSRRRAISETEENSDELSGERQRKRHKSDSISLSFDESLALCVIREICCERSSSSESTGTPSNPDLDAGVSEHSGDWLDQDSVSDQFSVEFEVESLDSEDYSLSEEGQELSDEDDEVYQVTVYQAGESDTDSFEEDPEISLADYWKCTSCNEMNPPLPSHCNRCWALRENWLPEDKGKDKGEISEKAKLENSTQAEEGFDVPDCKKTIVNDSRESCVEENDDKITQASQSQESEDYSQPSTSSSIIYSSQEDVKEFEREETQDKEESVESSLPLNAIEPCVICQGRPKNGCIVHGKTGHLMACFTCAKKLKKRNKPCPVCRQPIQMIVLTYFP

SMILES	IC50 [nM]
COc1ccc(-c2nc3c(n2C(C)C)[C@]2(C(=O)Nc4cc(Cl)ccc42)N(c2cc(Cl)ccc2C)C3=O)cc1 [Example R-64, (R)-6-chloro-5′-(5-chloro-2-methylphenyl)-3′-isopropyl-2′-(4-methoxyphenyl)-3′H-spiro[dihydroindole-3,4′-pyrrolo[3,4-d]imidazole]-2,6′(5′H)-dione]	1020
COc1cc(OC)c(-c2nc3c(n2C(C)C)[C@]2(C(=O)Nc4cc(Cl)ccc42)N(c2ccc(C(N)=O)c(Cl)c2)C3=O)cn1 [Example R-65, (R)-2-chloro-4-(6-chloro-2′-(4,6-dimethoxypyridin-3-yl)-3′-isopropyl-2,6′-dioxo-3′,6′-dihydro-5′H-spiro[dihydroindole-3,4′-pyrrolo[3,4-d]imidazole]-5′-yl)benzamide]	498
COc1cc(C(=O)N(C)C)ccc1-c1nc2c(n1C(C)C)[C@]1(C(=O)Nc3cc(Cl)ccc31)N(c1cc(Cl)ccc1C)C2=O [Example R-68, (R)-4-(6-chloro-5′-(5-chloro-2-methylphenyl)-3′-isopropyl-2,6′-dioxo-5′,6′-dihydro-3′H-spiro[dihydroindole-3,4′-pyrrolo[3,4-d]imidazole]-2′-yl)-3-methoxy-N,N-dimethylbenzamide]	657
COc1cc(N)ccc1-c1nc2c(n1C(C)C)[C@]1(C(=O)Nc3cc(Cl)ccc31)N(c1ccc(F)c(Cl)c1)C2=O [Example R-73, (R)-2′-(4-amino-2-methoxyphenyl)-6-chloro-5′-(3-chloro-4-fluorophenyl)-3′-isopropyl-3′H-spiro[dihydroindole-3,4′-pyrrolo[3,4-d]imidazole]-2,6′(5′H)-dione]	142
COc1c(F)cccc1-c1nc2c(n1C(C)C)[C@]1(C(=O)Nc3cc(Cl)ccc31)N(c1cc(Cl)ccc1C)C2=O [Example R-76, (R)-6-chloro-5′-(5-chloro-2-methylphenyl)-2′-(3-fluoro-2-methoxyphenyl)-3′-isopropyl-3′H-spiro[dihydroindole-3,4′-pyrrolo[3,4-d]imidazole]-2,6′(5′H)-dione]	579
COc1cc(C(N)=O)ccc1-c1nc2c(n1C(C)C)[C@]1(C(=O)Nc3cc(Cl)ccc31)N(c1cc(Cl)ccc1C)C2=O [Example R-77, (R)-4-(6-chloro-5′-(5-chloro-2-methylphenyl)-3′-isopropyl-2,6′-dioxo-5′,6′-dihydro-3′H-spiro[dihydroindole-3,4′-pyrrolo[3,4-d]imidazole]-2′-yl)-3-methoxybenzamide]	139
COc1cccc(OC)c1-c1nc2c(n1C(C)C)[C@]1(C(=O)Nc3cc(Cl)ccc31)N(c1cc(Cl)ccc1C)C2=O [Example R-79, (R)-6-chloro-5′-(5-chloro-2-methylphenyl)-2′-(2,6-dimethoxyphenyl)-3′-isopropyl-3′H-spiro[dihydroindole-3,4′-pyrrolo[3,4-d]imidazole]-2,6′(5′H)-dione]	285
COc1ccc(-c2nc3c(n2C(C)C)[C@]2(C(=O)Nc4cc(Cl)ccc42)N(c2cc(Cl)ccc2F)C3=O)c(OC)c1 [Example R-80, (R)-6-chloro-5′-(5-chloro-2-fluorophenyl)-2′-(2,4-dimethoxyphenyl)-3′-isopropyl-3′H-spiro[dihydroindole-3,4′-pyrrolo[3,4-d]imidazole]-2,6′(5′H)-dione]	363
COc1nc(N(C)C)ncc1-c1nc2c(n1C(C)C)[C@]1(C(=O)Nc3cc(Cl)ccc31)N(c1cc(Cl)ccc1C)C2=O [Example R-82, (R)-6-chloro-5′-(5-chloro-2-methylphenyl)-2′-(2-(dimethylamino)-4-methoxypyrimidin-5-yl)-3′-isopropyl-3′H-spiro[dihydroindole-3,4′-pyrrolo[3,4-d]imidazole]-2,6′(5′H)-dione]	394
COc1cc(C2CC2)ccc1-c1nc2c(n1C(C)C)[C@]1(C(=O)Nc3cc(Cl)ccc31)N(c1cc(Cl)ccc1C)C2=O [Example R-86, (R)-6-chloro-5′-(5-chloro-2-methylphenyl)-2′-(4-cyclopropyl-2-methoxyphenyl)-3′-isopropyl-3′H-spiro[dihydroindole-3,4′-pyrrolo[3,4-d]imidazole]-2,6′(5′H)-dione]	142
CCOc1ccc(-c2nc3c(n2C(C)C)[C@]2(C(=O)Nc4cc(Cl)ccc42)N(c2cc(Cl)ccc2C)C3=O)c(OC)c1 [Example R-88, (R)-6-chloro-5′-(5-chloro-2-methylphenyl)-2′-(4-ethoxy-2-methoxyphenyl)-3′-isopropyl-3′H-spiro[dihydroindole-3,4′-pyrrolo[3,4-d]imidazole]-2,6′(5′H)-dione]	399
COc1cc(C(C)C)ccc1-c1nc2c(n1C(C)C)[C@]1(C(=O)Nc3cc(Cl)ccc31)N(c1cc(Cl)cnc1C)C2=O [Example R-89, (R)-6-chloro-5′-(5-chloro-2-methylpyridin-3-yl)-3′-isopropyl-2′-(4-isopropyl-2-methoxyphenyl)-3′H-spiro[dihydroindole-3,4′-pyrrolo[3,4-d]imidazole]-2,6′(5′H)-dione]	569
COc1nc(N)ncc1-c1nc2c(n1C(C)C)[C@]1(C(=O)Nc3cc(Cl)ccc31)N(c1cc(Cl)ccc1C)C2=O [Example R-90, (R)-2′-(2-amino-4-methoxypyrimidin-5-yl)-6-chloro-5′-(5-chloro-2-methylphenyl)-3′-isopropyl-3′H-spiro[dihydroindole-3,4′-pyrrolo[3,4-d]imidazole]-2,6′(5′H)-dione]	310
COc1cc(C(C)C)ccc1-c1nc2c(n1C(C)C)[C@]1(C(=O)Nc3cc(Cl)ccc31)N(c1cccc(Cl)c1)C2=O [Example R-93, (R)-6-chloro-5′-(3-chlorophenyl)-3′-isopropyl-2′-(4-isopropyl-2-methoxyphenyl)-3′H-spiro[dihydroindole-3,4′-pyrrolo[3,4-d]imidazole]-2,6′(5′H)-dione]	658
CCOc1ccc(-c2nc3c(n2C(C)C)[C@]2(C(=O)Nc4cc(Cl)ccc42)N(c2cc(Cl)ccc2F)C3=O)c(OC)c1 [Example R-94, (R)-6-chloro-5′-(5-chloro-2-fluorophenyl)-2′-(4-ethoxy-2-methoxyphenyl)-3′-isopropyl-3′H-spiro[dihydroindole-3,4′-pyrrolo[3,4-d]imidazole]-2,6′(5′H)-dione]	840
COc1cc(OC(C)C)ncc1-c1nc2c(n1C(C)C)[C@]1(C(=O)Nc3cc(Cl)ccc31)N(c1cccc(Cl)c1)C2=O [Example R-95, (R)-6-chloro-5′-(3-chlorophenyl)-2′-(6-isopropoxy-4-methoxypyridin-3-yl)-3′-isopropyl-3′H-spiro[dihydroindole-3,4′-pyrrolo[3,4-d]imidazole]-2,6′(5′H)-dione]	1670
CCOc1cc(OC)c(-c2nc3c(n2C(C)C)[C@]2(C(=O)Nc4cc(Cl)ccc42)N(c2cc(Cl)cnc2C)C3=O)cn1 [Example R-96, (R)-6-chloro-5′-(5-chloro-2-methylpyridin-3-yl)-2′-(6-ethoxy-4-methoxypyridin-3-yl)-3′-isopropyl-3′H-spiro[dihydroindole-3,4′-pyrrolo[3,4-d]imidazole]-2,6′(5′H)-dione]	151
CCOc1cc(OC)c(-c2nc3c(n2C(C)C)[C@]2(C(=O)Nc4cc(Cl)ccc42)N(c2cc(Cl)ccc2F)C3=O)cn1 [Example R-98, (R)-6-chloro-5′-(5-chloro-2-fluorophenyl)-2′-(6-ethoxy-4-methoxypyridin-3-yl)-3′-isopropyl-3′H-spiro[dihydroindole-3,4′-pyrrolo[3,4-d]imidazole]-2,6′(5′H)-dione]	1030
CCOc1ccc(-c2nc3c(n2C(C)C)[C@]2(C(=O)Nc4cc(Cl)ccc42)N(c2cccc(Cl)c2)C3=O)c(OC)c1 [Example R-100, (R)-6-chloro-5′-(3-chlorophenyl)-2′-(4-ethoxy-2-methoxyphenyl)-3′-isopropyl-3′H-spiro[dihydroindole-3,4′-pyrrolo[3,4-d]imidazole]-2,6′(5′H)-dione]	633
COc1cc(C(C)(C)C)ccc1-c1nc2c(n1C(C)C)[C@]1(C(=O)Nc3cc(Cl)ccc31)N(c1cc(Cl)ccc1C)C2=O [Example R-101, (R)-2′-(4-(tert-butyl)-2-methoxyphenyl)-6-chloro-5′-(5-chloro-2-methylphenyl)-3′-isopropyl-3′H-spiro[dihydroindole-3,4′-pyrrolo[3,4-d]imidazole]-2,6′(5′H)-dione]	2000
CCOc1cc(OC)c(-c2nc3c(n2C(C)C)[C@]2(C(=O)Nc4cc(Cl)ccc42)N(c2cccc(Cl)c2)C3=O)cn1 [Example R-102, (R)-6-chloro-5′-(3-chlorophenyl)-2′-(6-ethoxy-4-methoxypyridin-3-yl)-3′-isopropyl-3′H-spiro[dihydroindole-3,4′-pyrrolo[3,4-d]imidazole]-2,6′(5′H)-dione]	413
CCN(CC)c1ccc(-c2nc3c(n2C(C)C)[C@]2(C(=O)Nc4cc(Cl)ccc42)N(c2cc(Cl)ccc2C)C3=O)c(OC)c1 [Example R-105, (R)-6-chloro-5′-(5-chloro-2-methylphenyl)-2′-(4-(diethylamino)-2-methoxyphenyl)-3′-isopropyl-3′H-spiro[dihydroindole-3,4′-pyrrolo[3,4-d]imidazole]-2,6′(5′H)-dione]	343
COc1cc(C2CC2)ncc1-c1nc2c(n1C(C)C)[C@]1(C(=O)Nc3cc(Cl)ccc31)N(c1cccc(Cl)c1)C2=O [Example R-106, (R)-6-chloro-5′-(3-chlorophenyl)-2′-(6-cyclopropyl-4-methoxypyridin-3-yl)-3′-isopropyl-3′H-spiro[dihydroindole-3,4′-pyrrolo[3,4-d]imidazole]-2,6′(5′H)-dione]	481
COc1cc(C2CC2)cc(OC)c1-c1nc2c(n1C(C)C)[C@]1(C(=O)Nc3cc(Cl)ccc31)N(c1cc(Cl)ccc1C)C2=O [Example R-108, (R)-6-chloro-5′-(5-chloro-2-methylphenyl)-2′-(4-cyclopropyl-2,6-dimethoxyphenyl)-3′-isopropyl-3′H-spiro[dihydroindole-3,4′-pyrrolo[3,4-d]imidazole]-2,6′(5′H)-dione]	691
